Assays:
Format in all cases: in vivo
[1] = system: velvetleaf (Abutilon theophrasti, ABUTH); assay: Pre-emerge test, greenhouse herbicide activity screening; settings: pre-emerge; for Pre-emerge Herbicidal Activity ABUTH (phytotoxicity rating, scale 0-100): rated 14 days after application, 0 = no damage, 100 = complete death; for phytotoxicity rating ABUTH: 14 days after application, rating scale 0-100
Procedure, shortened: (§1)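 Compounds in acetone were track-sprayed at 15-1000 g ai/ha (187 l/ha) on sandy loam pots: pre-emerge one day after seeding, post-emerge at 2-3 leaf stage with 0.25% v/v non-ionic surfactant. Phytotoxicity was rated 14 days later on a 0 (no damage) to 100 (complete death) scale.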

[2] = system: large crabgrass (Digitaria sanguinalis, DIGSA); assay: as above; settings: pre-emerge; for Pre-emerge Herbicidal Activity DIGSA (phytotoxicity rating, scale 0-100): rated 14 days after application, 0 = no damage, 100 = complete death; for phytotoxicity rating DIGSA: 14 days after application, rating scale 0-100
Procedure, shortened: as §1

[3] = system: green foxtail (Setaria viridis, SETVI); assay: as above; settings: pre-emerge; for Pre-emerge Herbicidal Activity SETVI (phytotoxicity rating, scale 0-100): rated 14 days after application, 0 = no damage, 100 = complete death; for phytotoxicity rating SETVI: 14 days after application, rating scale 0-100
Procedure, shortened: as §1

[4] = system: johnsongrass (Sorghum halepense, SORHA); assay: as above; settings: pre-emerge; for Pre-emerge Herbicidal Activity SORHA (phytotoxicity rating, scale 0-100): rated 14 days after application, 0 = no damage, 100 = complete death; for phytotoxicity rating SORHA: 14 days after application, rating scale 0-100
Procedure, shortened: as §1

[5] = system: sicklepod (Cassia obtusifolia, CASOB); assay: as above; settings: pre-emerge; for Pre-emerge Herbicidal Activity CASOB (phytotoxicity rating, scale 0-100): rated 14 days after application, 0 = no damage, 100 = complete death; for phytotoxicity rating CASOB: 14 days after application, rating scale 0-100
Procedure, shortened: as §1

[6] = system: velvetleaf (Abutilon theophrasti, ABUTH); assay: Post-emerge test, greenhouse herbicide activity screening; settings: Abutilon theophrasti, post-emergence, 336 h, phytotoxicity rating 0-100 (0 no damage, 100 complete death), 14 days after application, read-out: Post-emerge Herbicidal Activity ABUTH; for pest or weed control at 63 g/ha: 63 g ai/ha; for pest or weed control at 250 g/ha: 250 g ai/ha
Procedure, shortened: (§2)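 Plants grown in 10 cm pots of sandy loam mix received acetone-dissolved compounds through a moving flat-fan nozzle. Doses ranged from 15 to 1000 g ai/ha. Pre-emerge pots were seeded one day earlier, post-emerge pots 8–21 days earlier. Fourteen days on, each pot was graded 0–100 for damage.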

[7] = system: barnyardgrass (Echinochloa crus-galli, ECHCG); assay: as above; settings: Echinochloa crus-galli, post-emergence, 336 h, phytotoxicity rating 0-100 (0 no damage, 100 complete death), 14 days after application, read-out: Post-emerge Herbicidal Activity ECHCG; for pest or weed control at 63 g/ha: 63 g ai/ha; for pest or weed control at 250 g/ha: 250 g ai/ha
Procedure, shortened: as §2

[8] = system: lambsquarters (Chenopodium album, CHEAL); assay: as above; settings: Chenopodium album, post-emergence, 336 h, phytotoxicity rating 0-100 (0 no damage, 100 complete death), 14 days after application, read-out: Post-emerge Herbicidal Activity CHEAL
Procedure, shortened: as §2

[9] = system: large crabgrass (Digitaria sanguinalis, DIGSA); assay: as above; settings: Digitaria sanguinalis, post-emergence, 336 h, phytotoxicity rating 0-100 (0 no damage, 100 complete death), 14 days after application, read-out: Post-emerge Herbicidal Activity DIGSA; for pest or weed control at 63 g/ha: 63 g ai/ha; for pest or weed control at 250 g/ha: 250 g ai/ha
Procedure, shortened: as §2

[10] = system: ivyleaf morningglory (Ipomoea hederacea, IPOHE); assay: as above; settings: Ipomoea, post-emergence, 336 h, phytotoxicity rating 0-100 (0 no damage, 100 complete death), 14 days after application, read-out: Post-emerge Herbicidal Activity IPOHE; for pest or weed control at 63 g/ha: 63 g ai/ha; for pest or weed control at 250 g/ha: 250 g ai/ha
Procedure, shortened: as §2

[11] = system: redroot pigweed (Amaranthus retroflexus, AMARE); assay: as above; settings: Amaranthus retroflexus, post-emergence, 336 h, phytotoxicity rating 0-100 (0 no damage, 100 complete death), 14 days after application, read-out: Post-emerge Herbicidal Activity AMARE; for pest or weed control at 63 g/ha: 63 g ai/ha; for pest or weed control at 250 g/ha: 250 g ai/ha
Procedure, shortened: as §2

[12] = system: johnsongrass (Sorghum halepense, SORHA); assay: as above; settings: Sorghum halepense, post-emergence, 336 h, phytotoxicity rating 0-100 (0 no damage, 100 complete death), 14 days after application, read-out: Post-emerge Herbicidal Activity SORHA; for pest or weed control at 63 g/ha: 63 g ai/ha; for pest or weed control at 250 g/ha: 250 g ai/ha
Procedure, shortened: as §2

[13] = system: sicklepod (Cassia obtusifolia, CASOB); assay: as above; settings: Senna obtusifolia, post-emergence, 336 h, phytotoxicity rating 0-100 (0 no damage, 100 complete death), 14 days after application, read-out: Post-emerge Herbicidal Activity CASOB; for pest or weed control at 63 g/ha: 63 g ai/ha; for pest or weed control at 250 g/ha: 250 g ai/ha
Procedure, shortened: as §2

[14] = system: green foxtail (Setaria viridis, SETVI); assay: as above; settings: Setaria viridis, post-emergence, 336 h, phytotoxicity rating 0-100 (0 no damage, 100 complete death), 14 days after application, read-out: Post-emerge Herbicidal Activity SETVI
Procedure, shortened: as §2

COc1c(Cl)cc(F)c(-n2c(=O)cc(C(F)(F)F)n(C)c2=O)c1N [Compound 1-4, 3-(2-amino-4-chloro-6-fluoro-3-methoxyphenyl)-1-methyl-6-trifluoromethyl-2,4(1H, 3H)-pyrimidinedione]
Pre-emerge Herbicidal Activity ABUTH (phytotoxicity rating, scale 0-100) ([1]; 63 g ai/ha): 100 | Pre-emerge Herbicidal Activity ABUTH (phytotoxicity rating, scale 0-100) ([1]; 250 g ai/ha): 100 | phytotoxicity rating ABUTH ([1]; 3.9 g ai/ha): 95 | phytotoxicity rating ABUTH ([1]; 7.8 g ai/ha): 100 | phytotoxicity rating ABUTH ([1]; 15.6 g ai/ha): 100 | phytotoxicity rating ABUTH ([1]; 31.3 g ai/ha): 100 | phytotoxicity rating ABUTH ([1]; 62.5 g ai/ha): 100 | phytotoxicity rating ABUTH ([1]; 125 g ai/ha): 100 | phytotoxicity rating ABUTH ([1]; 250 g ai/ha): 100 | Pre-emerge Herbicidal Activity DIGSA (phytotoxicity rating, scale 0-100) ([2]; 63 g ai/ha): 100 | Pre-emerge Herbicidal Activity DIGSA (phytotoxicity rating, scale 0-100) ([2]; 250 g ai/ha): 100 | phytotoxicity rating DIGSA ([2]; 3.9 g ai/ha): 0 | phytotoxicity rating DIGSA ([2]; 7.8 g ai/ha): 30 | phytotoxicity rating DIGSA ([2]; 15.6 g ai/ha): 30 | phytotoxicity rating DIGSA ([2]; 31.3 g ai/ha): 30 | phytotoxicity rating DIGSA ([2]; 62.5 g ai/ha): 95 | phytotoxicity rating DIGSA ([2]; 125 g ai/ha): 100 | phytotoxicity rating DIGSA ([2]; 250 g ai/ha): 100 | Pre-emerge Herbicidal Activity SETVI (phytotoxicity rating, scale 0-100) ([3]; 63 g ai/ha): 100 | Pre-emerge Herbicidal Activity SETVI (phytotoxicity rating, scale 0-100) ([3]; 250 g ai/ha): 100 | phytotoxicity rating SETVI ([3]; 3.9 g ai/ha): 0 | phytotoxicity rating SETVI ([3]; 7.8 g ai/ha): 60 | phytotoxicity rating SETVI ([3]; 15.6 g ai/ha): 80 | phytotoxicity rating SETVI ([3]; 31.3 g ai/ha): 80 | phytotoxicity rating SETVI ([3]; 62.5 g ai/ha): 100 | phytotoxicity rating SETVI ([3]; 125 g ai/ha): 100 | phytotoxicity rating SETVI ([3]; 250 g ai/ha): 100 | Pre-emerge Herbicidal Activity SORHA (phytotoxicity rating, scale 0-100) ([4]; 63 g ai/ha): 85 | Pre-emerge Herbicidal Activity SORHA (phytotoxicity rating, scale 0-100) ([4]; 250 g ai/ha): 100 | phytotoxicity rating SORHA ([4]; 3.9 g ai/ha): 0 | phytotoxicity rating SORHA ([4]; 7.8 g ai/ha): 0 | phytotoxicity rating SORHA ([4]; 15.6 g ai/ha): 0 | phytotoxicity rating SORHA ([4]; 31.3 g ai/ha): 30 | phytotoxicity rating SORHA ([4]; 62.5 g ai/ha): 40 | phytotoxicity rating SORHA ([4]; 125 g ai/ha): 95 | phytotoxicity rating SORHA ([4]; 250 g ai/ha): 100 | Pre-emerge Herbicidal Activity CASOB (phytotoxicity rating, scale 0-100) ([5]; 63 g ai/ha): 90 | Pre-emerge Herbicidal Activity CASOB (phytotoxicity rating, scale 0-100) ([5]; 250 g ai/ha): 100 | phytotoxicity rating CASOB ([5]; 3.9 g ai/ha): 0 | phytotoxicity rating CASOB ([5]; 7.8 g ai/ha): 30 | phytotoxicity rating CASOB ([5]; 15.6 g ai/ha): 100 | phytotoxicity rating CASOB ([5]; 31.3 g ai/ha): 0 | phytotoxicity rating CASOB ([5]; 62.5 g ai/ha): 80 | phytotoxicity rating CASOB ([5]; 125 g ai/ha): 95 | phytotoxicity rating CASOB ([5]; 250 g ai/ha): 100 | pest or weed control at 63 g/ha [6]: 100% | pest or weed control at 250 g/ha [6]: 100% | pest or weed control at 63 g/ha [7]: 0% | pest or weed control at 250 g/ha [7]: 40% | pest or weed control at 63 g/ha ([8]; 63 g ai/ha): 60% | pest or weed control at 250 g/ha ([8]; 250 g ai/ha): 95% | pest or weed control at 63 g/ha [9]: 0% | pest or weed control at 250 g/ha [9]: 50% | pest or weed control at 63 g/ha [10]: 100% | pest or weed control at 250 g/ha [10]: 100% | pest or weed control at 63 g/ha [11]: 30% | pest or weed control at 250 g/ha [11]: 95% | pest or weed control at 63 g/ha [12]: 0% | pest or weed control at 250 g/ha [12]: 70% | pest or weed control at 63 g/ha [13]: 60% | pest or weed control at 250 g/ha [13]: 100%

Cn1c(C(F)(F)F)cc(=O)n(-c2c(F)cc(Cl)c(OC(F)F)c2N)c1=O [Compound 1-38, 3-(2-amino-4-chloro-3-difluoromethoxy-6-fluorophenyl)-1-methyl-6-trifluoromethyl-2,4(1H, 3H)-pyrimidinedione]
Pre-emerge Herbicidal Activity ABUTH (phytotoxicity rating, scale 0-100) ([1]; 63 g ai/ha): 100 | Pre-emerge Herbicidal Activity ABUTH (phytotoxicity rating, scale 0-100) ([1]; 250 g ai/ha): 100 | Pre-emerge Herbicidal Activity DIGSA (phytotoxicity rating, scale 0-100) ([2]; 63 g ai/ha): 100 | Pre-emerge Herbicidal Activity DIGSA (phytotoxicity rating, scale 0-100) ([2]; 250 g ai/ha): 100 | Pre-emerge Herbicidal Activity SETVI (phytotoxicity rating, scale 0-100) ([3]; 63 g ai/ha): 100 | Pre-emerge Herbicidal Activity SETVI (phytotoxicity rating, scale 0-100) ([3]; 250 g ai/ha): 100 | Pre-emerge Herbicidal Activity SORHA (phytotoxicity rating, scale 0-100) ([4]; 63 g ai/ha): 90 | Pre-emerge Herbicidal Activity SORHA (phytotoxicity rating, scale 0-100) ([4]; 250 g ai/ha): 100 | Pre-emerge Herbicidal Activity CASOB (phytotoxicity rating, scale 0-100) ([5]; 63 g ai/ha): 100 | Pre-emerge Herbicidal Activity CASOB (phytotoxicity rating, scale 0-100) ([5]; 250 g ai/ha): 100 | pest or weed control at 63 g/ha [6]: 100% | pest or weed control at 250 g/ha [6]: 100% | pest or weed control at 63 g/ha [7]: 0% | pest or weed control at 250 g/ha [7]: 80% | pest or weed control at 63 g/ha [9]: 10% | pest or weed control at 250 g/ha [9]: 80% | pest or weed control at 63 g/ha ([14]; 63 g ai/ha): 10% | pest or weed control at 250 g/ha ([14]; 250 g ai/ha): 80% | pest or weed control at 63 g/ha [10]: 80% | pest or weed control at 250 g/ha [10]: 100% | pest or weed control at 63 g/ha [11]: 80% | pest or weed control at 250 g/ha [11]: 100% | pest or weed control at 63 g/ha [12]: 0% | pest or weed control at 250 g/ha [12]: 80% | pest or weed control at 63 g/ha [13]: 50% | pest or weed control at 250 g/ha [13]: 90%

From patent US6355799B1, “Substituted benzene compounds, process for their preparation, and herbicidal and defoliant compositions containing them” (ISK Americas Incorporated, priority 1997, dated 2002)
